Patent publication US20120121540A1 (priority 2007, published 2012)

Experiment: HCV replicon assay (luciferase reporter, ET cell line)
Type: cell-based
Settings: Hepatitis C virus, HCV replicon luciferase activity in ET cells
Procedure, shortened: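 ET cells carry a stable luciferase-ubiquitin-neo/NS3-5B subgenomic HCV replicon with adaptive mutations. Compounds (0.1 nM to […], 0.5% DMSO) were added 24 h after plating, and luciferase was read 48-72 h later. EC50 came from 10-point 2-fold dilutions fitted to a Hill equation; TC50 was measured in parallel by WST-1.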

SMILES: O=C(c1nc2c(C(F)(F)F)cc(-c3ccoc3)cn2c1Cl)N1CCC(N2CCOCC2)C1 (centres unmarked) [Compound 381, (3-Chloro-6-furan-3-yl-8-trifluoromethyl-imidazo[1,2-a]pyridin-2-yl)-(3-morpholin-4-yl-pyrrolidin-1-yl)-methanone]
- inhibition at 10 µM: 37.9%

SMILES: [H]/N=C(/NCc1cccs1)c1nc2c(C(F)(F)F)cc(-c3ccoc3)cn2c1Cl [Compound 382, 3-Chloro-6-furan-3-yl-N-thiophen-2-ylmethyl-8-trifluoromethyl-imidazo[1,2-a]pyridine-2-carboxamidine]
- inhibition at 10 µM: 65.4%

SMILES: O=C(Cc1cccs1)NCc1cn2cc(-c3ccoc3)cc(C(F)(F)F)c2n1 [Compound 388, N-(6-Furan-3-yl-8-trifluoromethyl-imidazo[1,2-a]pyridin-2-ylmethyl)-2-thiophen-2-yl-acetamide]
- inhibition at 10 µM: 97.2%

SMILES: O=C(Cc1ccccc1)NCc1nc2c(C(F)(F)F)cc(-c3ccoc3)cn2c1Cl [Compound 389, N-(3-Chloro-6-furan-3-yl-8-trifluoromethyl-imidazo[1,2-a]pyridin-2-ylmethyl)-2-phenyl-acetamide]
- inhibition at 10 µM: 45.3%

SMILES: O=C(Cc1ccccc1)NCc1cn2cc(-c3ccoc3)cc(C(F)(F)F)c2n1 [Compound 390, N-(6-Furan-3-yl-8-trifluoromethyl-imidazo[1,2-a]pyridin-2-ylmethyl)-2-phenyl-acetamide]
- inhibition at 10 µM: 95.8%

SMILES: O=C(NCc1ccccc1)NCc1cn2cc(-c3ccoc3)cc(C(F)(F)F)c2n1 [Compound 391, 1-Benzyl-3-(6-furan-3-yl-8-trifluoromethyl-imidazo[1,2-a]pyridin-2-ylmethyl)-urea]
- inhibition at 10 µM: 99.9%

SMILES: O=C(NCc1cn2cc(-c3ccoc3)cc(C(F)(F)F)c2n1)OCc1ccccc1 [Compound 393, (6-Furan-3-yl-8-trifluoromethyl-imidazo[1,2-a]pyridine-2-ylmethyl)-carbamic Acid Benzyl Ester]
- inhibition at 10 µM: 0.5%

SMILES: O=S(=O)(NCc1cn2cc(-c3ccoc3)cc(C(F)(F)F)c2n1)c1ccccc1 [Compound 395]
- inhibition at 10 µM: 90.4%

SMILES: O=S(=O)(Cc1ccccc1)NCc1cn2cc(-c3ccoc3)cc(C(F)(F)F)c2n1 [Compound 396]
- inhibition at 10 µM: 94.2%

SMILES: O=C(NCc1ccc(F)cc1)NCc1cn2cc(-c3ccoc3)cc(C(F)(F)F)c2n1 [Compound 397, 1-(4-Fluoro-benzyl)-3-(6-furan-3-yl-8-trifluoromethyl-imidazo[1,2-a]pyridine-2-ylmethyl)-urea]
- inhibition at 10 µM: 21.9%

SMILES: O=C(NCc1cccc(F)c1)NCc1cn2cc(-c3ccoc3)cc(C(F)(F)F)c2n1 [Compound 398, 1-(3-Fluoro-benzyl)-3-(6-furan-3-yl-8-trifluoromethyl-imidazo[1,2-a]pyridine-2-ylmethyl)-urea]
- inhibition at 10 µM: 86.9%

SMILES: O=C(NCc1cn2cc(-c3ccoc3)cc(C(F)(F)F)c2n1)NCc1ccccc1F [Compound 399, 1-(2-Fluoro-benzyl)-3-(6-furan-3-yl-8-trifluoromethyl-imidazo[1,2-a]pyridine-2-ylmethyl)-urea]
- inhibition at 10 µM: 37.7%

SMILES: O=C(NCc1ccccc1F)c1nc2c(C(F)(F)F)cc(-c3ccoc3)cn2c1Cl [Compound 402, 3-Chloro-6-furan-3-yl-8-trifluoromethyl-imidazo[1,2-a]pyridine-2-carboxylic Acid-2-fluoro-benzylamide]
- inhibition at 10 µM: 94.9%

SMILES: O=C(NCc1cccc(F)c1)c1nc2c(C(F)(F)F)cc(-c3ccoc3)cn2c1Cl [Compound 403]
- inhibition at 10 µM: 88.9%

SMILES: O=C(NCc1ccc(F)cc1)c1nc2c(C(F)(F)F)cc(-c3ccoc3)cn2c1Cl [Compound 404]
- inhibition at 10 µM: 83.9%

SMILES: O=C(NCCc1ccccc1F)c1nc2c(C(F)(F)F)cc(-c3ccoc3)cn2c1Cl [Compound 405, 3-Chloro-6-furan-3-yl-8-trifluoromethyl-imidazo[1,2-a]-pyridine-2-carboxylic acid [2-(2-fluoro-phenyl)-ethyl]-amide]
- inhibition at 10 µM: 90%

SMILES: O=C(NCCc1cccc(F)c1)c1nc2c(C(F)(F)F)cc(-c3ccoc3)cn2c1Cl [Compound 406, 3-Chloro-6-furan-3-yl-8-trifluoromethyl-imidazo[1,2-a]-pyridine-2-carboxylic acid [2-(3-fluoro-phenyl)-ethyl]-amide]
- inhibition at 10 µM: 82.5%

SMILES: O=C(NCCc1ccc(F)cc1)c1nc2c(C(F)(F)F)cc(-c3ccoc3)cn2c1Cl [Compound 407, 3-Chloro-6-furan-3-yl-8-trifluoromethyl-imidazo[1,2-a]-pyridine-2-carboxylic acid [2-(4-fluoro-phenyl)-ethyl]-amide]
- inhibition at 10 µM: 88%

SMILES: O=C(CNC(=O)c1nc2c(C(F)(F)F)cc(-c3ccoc3)cn2c1Cl)c1cccc(F)c1 [Compound 409, 3-Chloro-6-furan-3-yl-8-trifluoromethyl-imidazo[1,2-a]pyridine-2-carboxylic Acid[2-(3-fluoro-phenyl)-2-oxo-ethyl]-amide]
- inhibition at 10 µM: 46.6%

SMILES: O=C(NC(c1ccccc1)c1ccccn1)c1nc2c(C(F)(F)F)cc(-c3ccoc3)cn2c1Cl (centres unmarked) [Compound 410, 3-Chloro-6-furan-3-yl-8-trifluoromethyl-imidazo[1,2-a]pyridine-2-carboxylic Acid (phenyl-pyridin-2-yl-methyl)-amide]
- inhibition at 10 µM: 99.1%

SMILES: C[C@@H](NC(=O)c1nc2c(C(F)(F)F)cc(-c3ccoc3)cn2c1Cl)c1ccccc1 [Compound 411, 3-Chloro-6-furan-3-yl-8-trifluoromethyl-imidazo[1,2-a]pyridine-2-carboxylic Acid (1-phenyl-ethyl)-amide]
- inhibition at 10 µM: 74.8%

SMILES: C[C@H](NC(=O)c1nc2c(C(F)(F)F)cc(-c3ccoc3)cn2c1Cl)c1ccccc1 [Compound 412, 3-Chloro-6-furan-3-yl-8-trifluoromethyl-imidazo[1,2-a]pyridine-2-carboxylic Acid (1-phenyl-ethyl)-amide]
- inhibition at 10 µM: 85%

SMILES: C[C@H](CNC(=O)c1nc2c(C(F)(F)F)cc(-c3ccoc3)cn2c1Cl)c1ccccc1 [Compound 414, 3-Chloro-6-furan-3-yl-8-trifluoromethyl-imidazo[1,2-a]pyridine-2-carboxylic Acid (2-phenyl-propyl)-amide]
- inhibition at 10 µM: 76.3%

SMILES: O=C(NCc1nccs1)c1nc2c(C(F)(F)F)cc(-c3ccoc3)cn2c1Cl [Compound 415, 3-Chloro-3-furan-3-yl-8-trifluomethyl-imidazo[1,2-a]-pyridine-2-carboxylic Acid (thiazol-2-ylmethyl)-amide]
- inhibition at 10 µM: 92.6%

SMILES: N#CC1CCN(C(=O)c2nc3c(C(F)(F)F)cc(-c4ccoc4)cn3c2Cl)C1 (centres unmarked) [Compound 416, 1-(3-Chloro-6-furan-3-yl-8-trifluoromethyl-imidazo[1,2-a]pyridine-2-carbonyl)-pyrrolidine-3-carbonitrile]
- inhibition at 10 µM: 58%

SMILES: O=C(c1nc2c(C(F)(F)F)cc(-c3ccoc3)cn2c1Cl)N1CCC(c2ncon2)C1 (centres unmarked) [Compound 417, (3-Chloro-6-furan-3-yl-8-trifluoromethyl-imidazo[1,2-a]pyridine-2-yl)-(3-[1,2,4]oxadiazol-3-yl-pyrrolidin-1-yl)-methanone]
- inhibition at 10 µM: 96.5%

SMILES: O=C(c1nc2c(C(F)(F)F)cc(-c3ccoc3)cn2c1Cl)N1CCC(c2ccc(F)c(F)c2)C1 (centres unmarked) [Compound 420, (3-Chloro-6-furan-3-yl-8-trifluoromethyl-imidazo[1,2-a]pyridine-2-yl)-[3-(3,4-difluoro-phenyl)-pyrrolidin-1-yl]-methanone]
- inhibition at 10 µM: 93.6%

SMILES: O=C(c1nc2c(C(F)(F)F)cc(-c3ccoc3)cn2c1Cl)N1CC=C(c2cccs2)C1 [Compound 422, (3-Chloro-6-furan-3-yl-8-trifluoromethyl-imidazo[1,2-a]pyridin-2-yl)-(3-thiophen-2-yl-2,5-dihydro-pyrrol-1-yl)-methanone]
- inhibition at 10 µM: 99.8%

SMILES: O=C(c1nc2c(C(F)(F)F)cc(-c3ccoc3)cn2c1Cl)N1CCC(c2cccs2)C1 (centres unmarked) [Compound 423, (3-Chloro-6-furan-3-yl-8-trifluoromethyl-imidazo[1,2-a]pyridin-2-yl)-(3-thiophen-2-yl-pyrrolidin-1-yl)-methanone]
- inhibition at 10 µM: 99.8%

SMILES: O=C(c1nc2c(C(F)(F)F)cc(-c3ccoc3)cn2c1Cl)N1CC=C(c2ccccc2F)C1 [Compound 424, (3-Chloro-6-furan-3-yl-8-trifluoromethyl-imidazo[1,2-a]pyridin-2-yl)-[3-(2-fluoro-phenyl)-2,5-dihydro-pyrrol-1-yl]-methanone]
- inhibition at 10 µM: 99.7%

SMILES: O=C(c1nc2c(C(F)(F)F)cc(-c3ccoc3)cn2c1Cl)N1CC=C(c2ccsc2)C1 [Compound 425, (3-Chloro-6-furan-3-yl-8-trifluoromethyl-imidazo[1,2-a]pyridin-2-yl)-(3-thiophen-3-yl-2,5-dihydro-pyrrol-1-yl)-methanone]
- inhibition at 10 µM: 99.3%

SMILES: O=C(c1nc2c(C(F)(F)F)cc(-c3ccoc3)cn2c1Cl)N1CC=C(c2cccc(F)c2)C1 [Compound 426, (3-Chloro-6-furan-3-yl-8-trifluoromethyl-imidazo[1,2-a]pyridin-2-yl)-[3-(3-fluoro-phenyl)-2,5-dihydro-pyrrol-1-yl]-methanone]
- inhibition at 10 µM: 98.2%

SMILES: O=C(c1nc2c(C(F)(F)F)cc(-c3ccoc3)cn2c1Cl)N1CC=C(c2ccc(F)cc2)C1 [Compound 427, (3-Chloro-6-furan-3-yl-8-trifluoromethyl-imidazo[1,2-a]pyridin-2-yl)-[3-(4-fluoro-phenyl)-2,5-dihydro-pyrrol-1-yl]-methanone]
- inhibition at 10 µM: 99.1%

SMILES: O=C(c1nc2c(C(F)(F)F)cc(-c3ccoc3)cn2c1Cl)N1CC=C(c2nccs2)C1 [Compound 428, (3-Chloro-6-furan-3-yl-8-trifluoromethyl-imidazo[1,2-a]pyridin-2-yl)-(3-thiazol-2-yl-2,5-dihydro-pyrrol-1-yl)-methanone]
- inhibition at 10 µM: 99.9%

SMILES: O=C(c1nc2c(C(F)(F)F)cc(-c3ccoc3)cn2c1Cl)N1CC=C(c2ccoc2)C1 [Compound 429, (3-Chloro-6-furan-3-yl-8-trifluoromethyl-imidazo[1,2-a]pyridin-2-yl)-(3-furan-3-yl-2,5-dihydro-pyrrol-1-yl)-methanone]
- inhibition at 10 µM: 98%
